# From patent US10183944B2 (Asana Biosciences, LLC, priority 2011, dated 2019)
# Structures can show the parent of a compound that is named as a salt.
# Columns and labels:
# [1] = molecular target: Syk (356-635 amino acids) catalytic domain (Homo sapiens (Human), UniProt P43405); assay: Inhibition of enzymatic Syk kinase activity (radiometric); type: biochemical; details: read-out: IC50 Syk
# How it was run: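 Human Syk (356-635) kinase domain (0.035–7.5 ng/reaction) preincubated with compound 30 minutes at room temperature, then reacted with pG4T substrate, 100 μM ATP (stock) and γ-32P-ATP for 10 minutes at 30° C. Reaction stopped with HCl/ATP, spotted on P81 paper, washed and counted by scintillation. Percent inhibition versus no-compound counts.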
# [2] = molecular target: JAK2 (Homo sapiens (Human), UniProt O60674); assay: Inhibition of enzymatic JAK2 kinase activity (TR-FRET); type: biochemical; details: read-out: IC50 JAK
# Chain of JAK2 (O60674 808-1132): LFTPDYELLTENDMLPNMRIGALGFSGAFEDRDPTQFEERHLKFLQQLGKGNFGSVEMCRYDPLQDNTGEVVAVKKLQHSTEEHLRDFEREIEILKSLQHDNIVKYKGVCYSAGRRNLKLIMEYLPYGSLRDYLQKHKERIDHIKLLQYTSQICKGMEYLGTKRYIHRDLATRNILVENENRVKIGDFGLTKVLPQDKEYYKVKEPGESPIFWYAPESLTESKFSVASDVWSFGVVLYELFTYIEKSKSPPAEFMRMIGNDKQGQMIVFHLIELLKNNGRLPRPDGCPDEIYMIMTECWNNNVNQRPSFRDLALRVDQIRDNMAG
# Source text: The objective of this assay was to screen compounds in a Time-resolved fluorescence resonance energy transfer (TR-FRET) Enzymatic assay method for their potential to inhibit JAK2 (Janus kinase) activity.
# TR-FRET assays are homogeneous proximity assays where Eu-labeled antiphosphotyrosine antibody binds to the phosphorylated substrates labeled with Ulight fluorescence acceptor. Eu can transfer energy to Ulight accepter in the complex and the interaction of two dye-labeled binding partners is detected by the energy transfer between a donor and an acceptor dye, and the subsequent light emission by the acceptor dye. The intensity of the light emission is proportional to the level of Ulight peptide phosphorylation.
# Two μL of 10% DMSO in blank, substrate control and positive control wells and 2 μL of test compound in test wells was added. Thirteen μL of assay buffer in blank and substrate control wells and 13 μL of Enzyme buffer mix in positive and test wells was added. The reaction mixture was incubated for 30 minutes at RT on a plate shaker. Ultra Light-pGT substrate (5 μL) [poly Glu-Tyr (4:1) labeled with U Light TM dye, a tyrosine kinase substrate] and ATP mix was added to all wells. The reaction plate was incubated for 60 minutes at RT on a plate shaker. The reaction was stopped by adding 40 mM EDTA (10 μL) in buffer. Ten μL of antibody was added to all the wells. The plate was read in a Wallac® 1420 Multilabel Counter Victor 3 instrument (Ex: 340 nm Em: 615 & 665 nm) The following calculations were made:
# F@ 665 Value-Buffer blank
# F@ 615 Value-Buffer blank
# Ratio of F@665/F@615-Substrate Blank
# % Activity=(Test Sample/Positive control)*100%
# Inhibition=(100−% Activity)
SMILES,IC50 [1],IC50 [2]
"CN1CCN(C(=O)COc2ccc(Nc3nc(N4CCC(CC#N)CC4)nc4cn[nH]c(=O)c34)cc2)CC1 [Example 271, 2-(1-(4-((4-(2-(4-methylpiperazin-1-yl)-2-oxoethoxy)phenyl)amino)-5-oxo-5,6-dihydropyrimido[4,5-d]pyridazin-2-yl)piperidin-4-yl)acetonitrile]",< 10 nM,< 50 nM
"N#CCC1CCN(c2ccc(Nc3nc(N4CCCCCC4)nc4cn[nH]c(=O)c34)cc2)CC1 [Example 80, 2-(1-(4-((2-(azepan-1-yl)-5-oxo-5,6-dihydropyrimido[4,5-d]pyridazin-4-yl)amino)phenyl)piperidin-4-yl)acetonitrile]",< 50 nM,< 10 nM
"O=C(O)CN1CCN(c2ccc(Nc3nc(-c4ccccc4)nc4cn[nH]c(=O)c34)cc2)CC1 [Example 12, 2-(4-(4-(5-oxo-2-phenyl-5,6-dihydropyrimido[4,5-d]pyridazin-4-ylamino)phenyl)piperazin-1-yl) acetic acid]",< 50 nM,< 10 nM
"O=c1[nH]ncc2nc(-c3ccccc3)nc(Nc3ccc(CN4CCOCC4)cc3)c12 [Example 4, 4-(4-(morpholinomethyl)phenylamino)-2-phenylpyrimido[4,5-d]pyridazin-5(6H)-one]",< 100 nM,< 50 nM
"O=c1[nH]ncc2nc(-c3ccc(Cl)cc3)nc(Nc3ccc(CN4CCNCC4)cc3)c12 [Example 40, 2-(4-chlorophenyl)-4-(4-(piperazin-1-ylmethyl)phenylamino)pyrimido[4,5-d]pyridazin-5(6H)-one hydrochloride]",< 50 nM,> 100 nM
"N#CCN1CCN(c2nc(Nc3ccc(N4CCC(CC(=O)O)CC4)cc3)c3c(=O)[nH]ncc3n2)CC1 [Example 70, 2-(1-(4-((2-(4-(cyanomethyl)piperazin-1-yl)-5-oxo-5,6-dihydropyrimido[4,5-d]pyridazin-4-yl)amino)phenyl)piperidin-4-yl)acetic acid]",< 100 nM,> 100 nM
"CC(C)(O)C(=O)N1CCN(Cc2ccc(Nc3nc(-c4ccccc4)nc4cn[nH]c(=O)c34)cc2)CC1 [Example 83, 4-((4-((4-(2-hydroxy-2-methylpropanoyl)piperazin-1-yl)methyl)phenyl)amino)-2-phenylpyrimido[4,5-d]pyridazin-5(6H)-one]",< 50 nM,< 50 nM
"COc1cccc(-c2nc(Nc3ccc(CN4CCNCC4)cc3)c3c(=O)[nH]ncc3n2)c1 [Example 31, 2-(3-methoxyphenyl)-4-(4-(piperazin-1-ylmethyl)phenylamino)pyrimido[4,5-d]pyridazin-5(6H)-one hydrochloride]",< 50 nM,> 100 nM
"COC(=O)c1ccc(-c2nc(Nc3ccc(CN4CCNCC4)cc3)c3c(=O)[nH]ncc3n2)cc1 [Example 2, Methyl 4-(5-oxo-4-(4-(piperazin-1-ylmethyl)phenylamino)-5,6-dihydropyrimido[4,5-d]pyridazin-2-yl)benzoate hydrochloride]",< 100 nM,> 100 nM

# The remaining lines, values ahead:
IC50 [1],IC50 [2],SMILES
< 50 nM,< 50 nM,"N#CCC1CCN(c2nc(Nc3ccc(CCCO)cc3)c3c(=O)[nH]ncc3n2)CC1 [Example 309, 2-(1-(4-((4-(3-hydroxypropyl)phenyl)amino)-5-oxo-5,6-dihydropyrimido[4,5-d]pyridazin-2-yl)piperidin-4-yl) acetonitrile]"
< 50 nM,< 50 nM,"COCCOc1ccc(Nc2nc(N3CCCCCC3)nc3cn[nH]c(=O)c23)cc1 [Example 324, 2-(azepan-1-yl)-4-((4-(2-methoxyethoxy)phenyl)amino)pyrimido[4,5-d]pyridazin-5(6H)-one]"
< 100 nM,> 100 nM,"N#CCC1CCN(c2nc(Nc3ccc(OC(F)F)cc3)c3c(=O)[nH]ncc3n2)CC1 [Example 338, 2-(1-(4-((4-(difluoromethoxy)phenyl)amino)-5-oxo-5,6-dihydropyrimido[4,5-d]pyridazin-2-yl)piperidin-4-yl) acetonitrile]"
< 10 nM,< 10 nM,"N#CCC1CCN(c2nc(Nc3ccc(N4CCN(CC#N)CC4)cc3)c3c(=O)[nH]ncc3n2)CC1 [Example 207, 2-(1-(4-((4-(4-(cyanomethyl)piperazin-1-yl)phenyl)amino)-5-oxo-5,6-dihydropyrimido[4,5-d]pyridazin-2-yl)piperidin-4-yl)acetonitrile]"
< 50 nM,< 10 nM,"O=c1[nH]ncc2nc(N3CCCCCC3)nc(Nc3ccc(CCO)cc3)c12 [Example 322, 2-(azepan-1-yl)-4-((4-(2-hydroxyethyl)phenyl)amino)pyrimido[4,5-d]pyridazin-5(6H)-one]"
< 50 nM,< 10 nM,"CN(C)CCOc1ccc(Nc2nc(N3CCCCCC3)nc3cn[nH]c(=O)c23)cc1 [Example 167, 2-(azepan-1-yl)-4-((4-(2-(dimethylamino)ethoxy)phenyl)amino)pyrimido[4,5-d]pyridazin-5(6H)-one]"
< 50 nM,< 10 nM,"N#CCC(=O)N1CCN(c2ccc(Nc3nc(N4CCC(CC#N)CC4)nc4cn[nH]c(=O)c34)cn2)CC1 [Example 237, 3-(4-(5-((2-(4-(cyanomethyl)piperidin-1-yl)-5-oxo-5,6-dihydropyrimido[4,5-d]pyridazin-4-yl)amino)pyridin-2-yl)piperazin-1-yl)-3-oxopropanenitrile]"
< 50 nM,< 10 nM,"CN1CCN(Cc2ccc(Nc3nc(N4CCCCCC4)nc4cn[nH]c(=O)c34)cc2)CC1 [Example 85, 2-(azepan-1-yl)-4-((4-((4-methylpiperazin-1-yl)methyl)phenyl)amino)pyrimido[4,5-d]pyridazin-5(6H)-one]"
< 50 nM,< 50 nM,"O=c1[nH]ncc2nc(N3CCCCCC3)nc(Nc3ccc(OCCO)cc3)c12 [Example 294, 2-(azepan-1-yl)-4-((4-(2-hydroxyethoxy)phenyl)amino)pyrimido[4,5-d]pyridazin-5(6H)-one]"
< 50 nM,< 10 nM,"O=c1[nH]ncc2nc(N3CCCCCC3)nc(Nc3ccc(-c4nn[nH]n4)cc3)c12 [Example 227, 4-((4-(2H-tetrazol-5-yl)phenyl)amino)-2-(azepan-1-yl)pyrimido[4,5-d]pyridazin-5(6H)-one]"
< 50 nM,< 50 nM,"O=c1[nH]ncc2nc(N3CCCCCC3)nc(Nc3ccc(N4CCCC(CO)C4)cc3)c12 (centres unmarked) [Example 285, 2-(azepan-1-yl)-4-((4-(3-(hydroxymethyl)piperidin-1-yl)phenyl)amino) pyrimido[4,5-d]pyridazin-5(6H)-one]"
< 10 nM,< 10 nM,"O=C(CC1CCN(c2ccc(Nc3nc(N4CCCCCC4)nc4cn[nH]c(=O)c34)cc2)CC1)NCCO [Example 109, 2-(1-(4-((2-(azepan-1-yl)-5-oxo-5,6-dihydropyrimido[4,5-d]pyridazin-4-yl)amino)phenyl)piperidin-4-yl)-N-(2-hydroxyethyl)acetamide]"
< 10 nM,< 10 nM,"O=C(O)CCC1CCN(c2ccc(Nc3nc(N4CCCCCC4)nc4cn[nH]c(=O)c34)cc2)CC1 [Example 130, 3-(1-(4-((2-(azepan-1-yl)-5-oxo-5,6-dihydropyrimido[4,5-d]pyridazin-4-yl)amino)phenyl)piperidin-4-yl)propanoic acid]"
